In patent US20210300924A1, “5-[6-[[3-(4,5,6,7-TETRAHYDROPYRAZOLO[4,3-C]PYRIDIN-1-YL)AZETIDIN-1-YL]METHYL]MORPHOLIN-4-YL]QUINOLINE-8-CARBONITRILE DERIVATIVES AND SIMILAR COMPOUNDS AS TLR7-9 ANTAGONISTS FOR TREATING SYSTEMIC LUPUS ERYTHEMATOSUS” (Hoffmann-La Roche Inc., priority 2018, published 2021):

Molecular target: T1, human TLR8 (Homo sapiens, UniProt Q9NR97)
T1 construct: host or cells: HEK293 (HEK-Blue hTLR8)
T1 sequence (Q9NR97 27-1041): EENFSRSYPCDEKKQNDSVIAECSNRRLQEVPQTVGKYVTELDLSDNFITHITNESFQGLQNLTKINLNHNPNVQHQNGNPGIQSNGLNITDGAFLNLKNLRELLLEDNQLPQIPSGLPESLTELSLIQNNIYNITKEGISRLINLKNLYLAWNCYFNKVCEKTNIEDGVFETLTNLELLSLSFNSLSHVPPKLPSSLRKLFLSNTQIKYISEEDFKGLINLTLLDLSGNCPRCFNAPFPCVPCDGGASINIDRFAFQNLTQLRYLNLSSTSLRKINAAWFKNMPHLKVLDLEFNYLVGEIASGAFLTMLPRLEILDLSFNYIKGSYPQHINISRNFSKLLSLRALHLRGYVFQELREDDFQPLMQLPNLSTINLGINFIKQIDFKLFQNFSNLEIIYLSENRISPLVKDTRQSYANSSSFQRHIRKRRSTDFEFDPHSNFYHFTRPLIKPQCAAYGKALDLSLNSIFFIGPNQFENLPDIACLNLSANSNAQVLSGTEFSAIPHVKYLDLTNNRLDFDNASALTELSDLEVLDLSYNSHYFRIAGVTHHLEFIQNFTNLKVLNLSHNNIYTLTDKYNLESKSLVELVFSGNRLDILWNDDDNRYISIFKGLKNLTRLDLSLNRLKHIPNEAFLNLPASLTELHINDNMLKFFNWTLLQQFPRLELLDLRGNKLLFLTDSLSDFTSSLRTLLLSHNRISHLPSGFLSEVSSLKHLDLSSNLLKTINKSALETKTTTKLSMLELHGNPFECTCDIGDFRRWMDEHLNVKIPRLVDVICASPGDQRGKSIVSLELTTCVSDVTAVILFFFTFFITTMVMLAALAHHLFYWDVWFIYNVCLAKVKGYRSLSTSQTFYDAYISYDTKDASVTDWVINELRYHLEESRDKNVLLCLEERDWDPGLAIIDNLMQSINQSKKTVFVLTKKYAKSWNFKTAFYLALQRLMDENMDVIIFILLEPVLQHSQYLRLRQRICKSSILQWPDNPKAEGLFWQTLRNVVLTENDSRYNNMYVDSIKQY
Assay: HEK293-Blue-hTLR-8 cells assay
Assay type: cell-based
Conditions: HEK293-Blue-hTLR8 cells, R848 stimulation, 20 hrs, SEAP reporter; read-out: HEK/hTLR8 IC50
Text: A stable HEK293-Blue-hTLR-8 cell line was purchased from InvivoGen (Cat. #: hkb-htlr8, San Diego, Calif., USA). These cells were originally designed for studying the stimulation of human TLR8 by monitoring the activation of NF-κB. A SEAP (secreted embryonic alkaline phosphatase) reporter gene was placed under the control of the IFN-β minimal promoter fused to five NF-κB and AP-1-binding sites. The SEAP was induced by activating NF-κB and AP-1 via stimulating HEK-Blue hTLR8 cells with TLR8 ligands. Therefore the reporter expression was declined by TLR8 antagonist under the stimulation of a ligand, such as R848, for incubation of 20 hrs. The cell culture supernatant SEAP reporter activity was determined using QUANTI-Blue™ kit (Cat. #: rep-qb1, Invivogen, San Diego, Ca, USA) at a wavelength of 640 nm, a detection medium that turns purple or blue in the presence of alkaline phosphatase.
HEK293-Blue-hTLR8 cells were incubated at a density of 250,000-450,000 cells/mL in a volume of 170 μL in a 96-well plate in Dulbecco's Modified Eagle's medium (DMEM) containing 4.5 g/L glucose, 50 U/mL penicillin, […], […], 2 mM L-glutamine, 10% (v/v) heat-inactivated fetal bovine serum with addition of 20 μL test compound in a serial dilution in the presence of final DMSO at 1% and 10 μL of 60 uM R848 in above DMEM, perform incubation under 37° C. in a CO2 incubator for 20 hrs. Then 20 μL of the supernatant from each well was incubated with […] Quanti-blue substrate solution at 37° C. for 2 hrs and the absorbance was read at 620-655 nm using a spectrophotometer. The signaling pathway that TLR8 activation leads to downstream NF-κB activation has been widely accepted, and therefore similar reporter assay was modified for evaluating TLR8 antagonist.

| Compound | IC50 [nM] |
| --- | --- |
| C[C@@H]1CN(c2ccc(C#N)c3ncccc23)C[C@H](CN2CC(n3cc4c(n3)[C@H](C)CNC4)C2)O1 (single isomer, unassigned) [Example 25] | 11 |
| C[C@@H]1CN(c2ccc(C#N)c3ncccc23)C[C@H](CN2CC(n3cc4c(n3)C(C)(C)CNC4)C2)O1 [Example 24, 5-[(2S,6R)-2-[[3-(7,7-dimethyl-5,6-dihydro-4H-pyrazolo[4,3-c]pyridin-2-yl)azetidin-1-yl]methyl]-6-methyl-morpholin-4-yl]quinoline-8-carbonitrile] | 14 |
| Cc1nn(C2CN(C[C@H]3CN(c4ccc(C#N)c5ncccc45)C[C@@H](C)O3)C2)c2c1CN(C)CC2 [Example 14, 5-[(2S,6R)-2-[[3-(3,5-dimethyl-6,7-dihydro-4H-pyrazolo[4,3-c]pyridin-1-yl)azetidin-1-yl]methyl]-6-methyl-morpholin-4-yl]quinoline-8-carbonitrile] | 10 |
| Cc1nn(C2CN(C[C@H]3CN(c4ccc(C#N)c5ncccc45)C[C@@H](C)O3)C2)c2c1CNCC2 [Example 12, 5-[(2R,6S)-2-methyl-6-[[3-(3-methyl-4,5,6,7-tetrahydropyrazolo[4,3-c]pyridin-1-yl)azetidin-1-yl]methyl]morpholin-4-yl]quinoline-8-carbonitrile] | 44 |
| C[C@@H]1CN(c2ccc(C#N)c3ncccc23)C[C@H](CN2CC(n3cc4c(n3)[C@@H](C)CNC4)C2)O1 (single isomer, unassigned) [Example 26] | 12 |
| C[C@@H]1CN(c2ccc(C#N)c3ncccc23)C[C@H](CN2CC(n3ncc4c3CNC4)C2)O1 [Example 10, 5-[(2S,6R)-2-[[3-(5,6-dihydro-4H-pyrrolo[3,4-c]pyrazol-1-yl)azetidin-1-yl]methyl]-6-methyl-morpholin-4-yl]quinoline-8-carbonitrile] | 19 |
| C[C@@H]1CN(c2ccc(C#N)c3ncccc23)C[C@H](CN2CC(n3cc4c(n3)[C@@H](C)NCC4)C2)O1 (single isomer, unassigned) [Example 33] | 13 |

The next molecules have a lower IC50 than those just listed; values first:

| IC50 [nM] | Compound |
| --- | --- |
| 5 | C[C@@H]1CN(c2ccc(C#N)c3ncccc23)C[C@H](CN2CC(n3ncc4c3[C@@H](C)NCC4)C2)O1 (single isomer, unassigned) [Example 31] |
| 7 | CC(C)N1CCc2cn(C3CN(C[C@H]4CN(c5ccc(C#N)c6ncccc56)C[C@@H](C)O4)C3)nc2C1 [Example 9, 5-[(2S,6R)-2-[[3-(6-isopropyl-5,7-dihydro-4H-pyrazolo[3,4-c]pyridin-2-yl)azetidin-1-yl]methyl]-6-methyl-morpholin-4-yl]quinoline-8-carbonitrile] |
| 5 | CCN1CCc2cn(C3CN(C[C@H]4CN(c5ccc(C#N)c6ncccc56)C[C@@H](C)O4)C3)nc2C1 [Example 7, 5-[(2S,6R)-2-[[3-(6-ethyl-5,7-dihydro-4H-pyrazolo[3,4-c]pyridin-2-yl)azetidin-1-yl]methyl]-6-methyl-morpholin-4-yl]quinoline-8-carbonitrile] |
| 8 | C[C@@H]1CN(c2ccc(C#N)c3ncccc23)C[C@H](CN2CC(n3ncc4c3CN[C@@H](C)C4)C2)O1 (single isomer, unassigned) [Example 27] |
| 5 | CC(C)N1CCc2cnn(C3CN(C[C@H]4CN(c5ccc(C#N)c6ncccc56)C[C@@H](C)O4)C3)c2C1 [Example 8, 5-[(2S,6R)-2-[[3-(6-isopropyl-5,7-dihydro-4H-pyrazolo[3,4-c]pyridin-1-yl)azetidin-1-yl]methyl]-6-methyl-morpholin-4-yl]quinoline-8-carbonitrile] |
| 5 | CCN1CCc2cnn(C3CN(C[C@H]4CN(c5ccc(C#N)c6ncccc56)C[C@@H](C)O4)C3)c2C1 [Example 6, 5-[(2S,6R)-2-[[3-(6-ethyl-5,7-dihydro-4H-pyrazolo[3,4-c]pyridin-1-yl)azetidin-1-yl]methyl]-6-methyl-morpholin-4-yl]quinoline-8-carbonitrile] |
